Results published in patent publication US11344510B2, “Arylcyclohexylamine derivatives and their use in the treatment of psychiatric disorders” (Gilgamesh Pharmaceuticals, Inc., priority 2019, dated 2022).

Tests used:
[1] = MLM stability (Low Activity); format: in vitro ADME, CD-1 mice; settings: male, CD-1, mouse, liver microsomes, pH 7.4, Condition 1 (Low Activity), 0.50 mg protein/mL
Protocol: (§1) MLM Stability (Low Activity). Pooled MLM from male CD-1 mice (XenoTech M1000) were used. Microsomal incubations were carried out in multi-well plates. Liver microsomal incubation medium consisted of PBS (100 mM, pH 7.4), MgCl2 (1 mM), and NADPH (1 mM), with 0.50 mg of liver microsomal protein per mL. Control incubations were performed by replacing the NADPH-cofactor system with PBS. Test compounds (1 μM, final solvent concentration 1.0%) were incubated with microsomes at 37° C. with constant shaking. Six time points over 60 minutes were analyzed, with 60 μL aliquots of the reaction mixture being drawn at each time point. The reaction aliquots were stopped by adding 180 μL of cold (4° C.) acetonitrile containing 200 ng/mL tolbutamide and 200 ng/mL labetalol as internal standards (IS), followed by shaking for 10 minutes, and then protein sedimentation by centrifugation at 4000 rpm for 20 minutes at 4° C. Supernatant samples (80 μL) were diluted with water (240 μL) and analyzed for parent compound remaining using a fit-for-purpose liquid chromatography-tandem mass spectrometry (LC-MS/MS) method.
(§2) Data Analysis. The elimination constant (kel), half-life (t1/2) and intrinsic clearance (Clint) were determined in a plot of […] versus time, using linear regression analysis.

[2] = target: T1, serotonin transporter (SERT) (Homo sapiens, UniProt P31645); experiment: Fluorescent substrate uptake inhibition, SERT; format: cell-based; settings: for inhibition at 10 µM: HEK293 cells expressing SERT
T1 construct: expressed in transfected cells; host or cells: HEK293
Protocol: (§3) Uptake Inhibition. The ability of test compounds to block monoamine uptake by SERT, NET, DAT, and VMAT2 was determined using the Neurotransmitter Transporter Uptake Assay Kit manufactured by Molecular Devices (Cat #R8173). Briefly, stably transfected cells expressing the MAT of interest (HEK293 cells for SERT and NET; CHO cells for DAT) were grown and plated into 384-well plates at a concentration of 20,000 cells per well. Plates were then incubated for 16-20 h at 37° C. and 5% CO2. The medium was then aspirated and replaced with 25 μL of assay buffer (20 mM HEPES in HBSS, containing 0.1% BSA) containing the test compounds at the appropriate concentrations. Plates were then centrifuged at 300 rpm for 15 s and then incubated at 37° C. for 30 minutes. At this time, 25 μL of the proprietary fluorescent dye solution was added, the plates were incubated at 37° C. for 60 minutes, and then fluorescence was quantified on a plate reader (excitation wavelength=440 nm, emission wavelength=520 nm). The proprietary dye solution contains a mixture of 1) a fluorescent dye that mimics the endogenous substrates of MATs and is thereby actively transported to the intracellular compartment in the absence of an inhibitor and 2) a masking dye that inhibits the fluorescence of dye 1 in the extracellular compartment. Therefore, the overall fluorescence of the system increases as the fluorescent dye is transported into the cells.

[3] = target: T2, vesicular monoamine transporter 2 (VMAT2) (Homo sapiens, UniProt Q05940); experiment: Fluorescent substrate uptake inhibition, VMAT2; format: cell-based; settings: for inhibition at 10 µM: transfected cells
T2 construct: expressed in transfected cells
Protocol: as §3

[4] = target: T3, norepinephrine transporter (NET) (Homo sapiens, UniProt P23975); experiment: Fluorescent substrate uptake inhibition, NET; format: cell-based; settings: for inhibition at 10 µM: HEK293 cells expressing NET
T3 construct: expressed in transfected cells; host or cells: HEK293
Protocol: as §3

[5] = target: MK-801 binding site of the N-methyl-D-aspartate receptor (NMDAR); experiment: NMDAR radioligand binding with [3H]MK-801, Method B; parameters: species or system Sprague Dawley rat; settings: MK-801 site, Method B, male Sprague Dawley rat cortex, 5.0 nM [3H]MK-801; read-out: NMDAR Ki ± SEM
Protocol: Radioligand Binding—Method B. Affinity of the test compounds for NMDAR was determined in radioligand binding experiments with [^3H]MK-801 by WuXi AppTec (Hong Kong) Limited, under the conditions described in Table 13.

[6] = RLM stability (Low Activity); format: in vitro ADME, Sprague Dawley rats; settings: male, Sprague Dawley, rat, liver microsomes, pH 7.4, Condition 1 (Low Activity), 0.50 mg protein/mL
Protocol: as §1, with “RLM” for “MLM”, “Sprague Dawley rats” for “CD-1 mice”, “R1000)” for “M1000)”
as §2

[7] = target: T4, dopamine transporter (DAT) (Homo sapiens, UniProt Q01959); experiment: Fluorescent substrate uptake inhibition, DAT; format: cell-based; settings: for inhibition at 10 µM: CHO cells expressing DAT
T4 construct: expressed in transfected cells; host or cells: CHO (uptake)
Protocol: as §3

[8] = HLM stability (Low Activity, Alternative Method); format: in vitro ADME; settings: both sexes, human, liver microsomes, pH 7.4, Condition 1 column, values marked *: Low Activity, 0.50 mg protein/mL
Protocol: as §1, with “HLM” for “MLM”, “Activity, Alternative Method).” for “Activity).”, “from adult” for “from”, “and female donors (Corning 452117)” for “CD-1 mice (XenoTech M1000)”
as §2

T3 sequence (P23975 whole entry, species assumed): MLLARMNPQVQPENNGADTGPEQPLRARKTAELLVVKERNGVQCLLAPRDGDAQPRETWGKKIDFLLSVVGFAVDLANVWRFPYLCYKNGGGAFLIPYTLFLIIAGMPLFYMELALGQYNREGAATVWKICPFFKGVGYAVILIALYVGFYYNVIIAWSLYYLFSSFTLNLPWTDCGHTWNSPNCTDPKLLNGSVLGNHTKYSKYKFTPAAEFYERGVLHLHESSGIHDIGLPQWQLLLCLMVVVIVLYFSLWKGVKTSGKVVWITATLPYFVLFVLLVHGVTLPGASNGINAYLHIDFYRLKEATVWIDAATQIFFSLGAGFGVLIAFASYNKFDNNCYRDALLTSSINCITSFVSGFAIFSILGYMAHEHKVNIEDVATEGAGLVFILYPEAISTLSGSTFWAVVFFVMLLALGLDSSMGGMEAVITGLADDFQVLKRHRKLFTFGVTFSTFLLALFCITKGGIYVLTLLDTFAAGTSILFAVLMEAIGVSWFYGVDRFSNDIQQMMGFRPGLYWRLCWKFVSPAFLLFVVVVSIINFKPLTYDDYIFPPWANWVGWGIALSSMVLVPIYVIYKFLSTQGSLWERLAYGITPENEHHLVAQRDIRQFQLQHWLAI
T4 sequence (Q01959 whole entry, species assumed): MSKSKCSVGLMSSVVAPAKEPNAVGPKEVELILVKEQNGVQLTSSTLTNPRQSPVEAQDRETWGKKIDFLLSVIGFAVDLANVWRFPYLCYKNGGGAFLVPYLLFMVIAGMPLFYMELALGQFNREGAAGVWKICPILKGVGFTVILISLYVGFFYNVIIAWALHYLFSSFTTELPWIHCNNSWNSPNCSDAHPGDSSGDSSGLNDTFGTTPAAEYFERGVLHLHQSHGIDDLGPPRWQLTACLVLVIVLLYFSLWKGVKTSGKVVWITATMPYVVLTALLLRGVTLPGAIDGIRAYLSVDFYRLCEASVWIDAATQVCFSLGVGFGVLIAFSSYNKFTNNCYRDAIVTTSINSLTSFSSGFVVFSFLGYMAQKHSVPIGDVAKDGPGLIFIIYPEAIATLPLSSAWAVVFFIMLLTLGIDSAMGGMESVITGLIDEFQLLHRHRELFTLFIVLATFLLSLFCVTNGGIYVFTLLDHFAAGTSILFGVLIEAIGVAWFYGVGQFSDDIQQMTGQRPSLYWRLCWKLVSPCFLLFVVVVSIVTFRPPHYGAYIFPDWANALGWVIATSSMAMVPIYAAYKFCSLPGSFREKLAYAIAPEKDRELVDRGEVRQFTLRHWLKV
T1 sequence (P31645 whole entry, species assumed): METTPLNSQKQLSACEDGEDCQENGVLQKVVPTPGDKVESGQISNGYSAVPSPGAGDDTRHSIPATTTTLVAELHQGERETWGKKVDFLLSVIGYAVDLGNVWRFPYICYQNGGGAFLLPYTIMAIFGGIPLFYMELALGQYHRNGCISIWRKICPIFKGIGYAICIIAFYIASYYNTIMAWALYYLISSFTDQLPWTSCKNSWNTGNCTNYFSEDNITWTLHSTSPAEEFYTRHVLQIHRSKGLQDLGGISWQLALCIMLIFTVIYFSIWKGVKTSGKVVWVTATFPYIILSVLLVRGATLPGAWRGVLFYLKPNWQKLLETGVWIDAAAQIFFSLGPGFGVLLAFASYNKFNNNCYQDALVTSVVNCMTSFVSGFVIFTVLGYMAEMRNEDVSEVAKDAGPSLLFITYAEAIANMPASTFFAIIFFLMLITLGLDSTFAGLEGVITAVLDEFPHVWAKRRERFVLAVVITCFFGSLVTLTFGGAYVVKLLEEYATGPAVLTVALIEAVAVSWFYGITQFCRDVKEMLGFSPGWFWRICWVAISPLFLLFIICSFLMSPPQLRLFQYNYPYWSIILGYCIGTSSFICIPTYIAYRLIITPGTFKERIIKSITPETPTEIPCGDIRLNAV
T2 sequence (Q05940 whole entry, species assumed): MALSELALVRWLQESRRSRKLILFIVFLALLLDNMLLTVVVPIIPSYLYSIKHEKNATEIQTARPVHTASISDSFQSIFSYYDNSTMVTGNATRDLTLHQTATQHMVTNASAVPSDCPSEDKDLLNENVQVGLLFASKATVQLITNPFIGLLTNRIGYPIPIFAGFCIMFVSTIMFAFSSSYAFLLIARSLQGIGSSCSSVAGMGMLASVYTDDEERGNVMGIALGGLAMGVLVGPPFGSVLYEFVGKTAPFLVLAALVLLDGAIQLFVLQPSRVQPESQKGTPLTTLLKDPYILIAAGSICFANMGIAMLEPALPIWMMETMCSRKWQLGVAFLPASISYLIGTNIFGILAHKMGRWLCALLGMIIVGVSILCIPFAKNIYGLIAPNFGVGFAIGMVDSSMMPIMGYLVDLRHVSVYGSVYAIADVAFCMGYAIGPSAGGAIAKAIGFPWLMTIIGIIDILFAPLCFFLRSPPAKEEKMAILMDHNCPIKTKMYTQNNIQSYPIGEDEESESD

Row | SMILES | half-life at 1 μM [1] [min] | microsomal CLint at 1 μM [1] [µL/min/mg] | inhibition at 10 µM [2] [%] | inhibition at 10 µM [3] [%] | inhibition at 10 µM [4] [%] | Ki [5] [µM] | half-life at 1 μM [6] [min] | microsomal CLint at 1 μM [6] [µL/min/mg] | inhibition at 10 µM [7] [%] | half-life at 1 μM [8] [min] | microsomal CLint at 1 μM [8] [µL/min/mg] | IC50 [2] [µM] | IC50 [3] [µM] | IC50 [4] [µM] | IC50 [7] [µM]
1 | COCCN[C@@]1(c2ccccc2)CCCCC1=O [Compound 29R, (R)-2-((2-methoxyethyl)amino)-2-phenylcyclohexan-1-one] | 30.1 | 46.1 | 19.6 | -31.9 | -16 | > 23 | 32.2 | 43 | -7.1 | > 145 | < 9.6 |  |  |  | 
2 | O=C1CCCC[C@]1(c1ccccc1)N1CCOCC1 [Compound 31R, (R)-2-morpholino-2-phenylcyclohexan-1-one] | 11.2 | 124 | -1.2 | -3.4 | 1.3 | > 23 | 6.8 | 204 | 9.8 | 45.7 | 30.3 |  |  |  | 
3 | CCN(CC)[C@]1(c2ccccc2)CCCCC1=O [Compound 25S, (S)-2-(diethylamino)-2-phenylcyclohexanone] | 8.6 | 161 | 45.6 | 1.7 | -0.13 | 5.2 | 14.5 | 95.4 | 24.9 | 42 | 33 |  |  |  | 
4 | CCN(CC)[C@@]1(c2ccccc2)CCCCC1=O [Compound 25R, (R)-2-(diethylamino)-2-phenylcyclohexanone] | 8.5 | 163 | 26.9 | -10.3 | 20.8 | 5.5 | 15.3 | 90.3 | 20.8 | 49 | 28.3 |  |  |  | 
5 | O=C1CCCC[C@@]1(c1ccccc1)N1CCCC1 [Compound 27S, (S)-2-phenyl-2-(pyrrolidin-1-yl)cyclohexan-1-one] | 41 | 33.8 |  |  |  | 1.1 | 53.7 | 25.8 |  | > 145 | < 9.6 | 0.041 | 19.3 | 8.5 | 10.9
6 | CNC1(c2cccc(C)c2)CCCCC1=O (racemic) [Compound 23rac, 2-(methylamino)-2-(m-tolyl)cyclohexan-1-one] | 52.7 | 26.3 | -1 | 16 | 8 | 4.6 | 3.6 | 390 | 8.5 | 133 | 10.4 |  |  |  | 
7 | Cc1ccc(C2(N)CCCCC2=O)cc1 (racemic) [Compound 120rac, 2-amino-2-(p-tolyl)cyclohexan-1-one] | 112 | 12.4 | 27.5 | 41 | 7.1 | 23 | 3.6 | 380 | 5.3 | > 145 | < 9.6 |  |  |  | 
8 | CC1CCN1C1(c2ccccc2)CCCCC1=O (stereo not shown) [Compound 128mix, 2-(2-methylazetidin-1-yl)-2-phenylcyclohexan-1-one] | 20.3 | 68.3 | 81.9 | 23.4 | -2.9 | 1.9 | 27.4 | 50.6 | 19.2 | 87 | 15.9 |  |  |  | 
